Source: patent US9670189B2, “Substituted condensed pyrimidine compounds” (GRÜNENTHAL GMBH, priority 2013, dated 2017)

What was measured:
human PDE4B1 = molecular target: T1, human PDE4B1 (Homo sapiens, UniProt Q07343); test: cAMP HTRF assay to determine the activity of hPDE4B1; assay type: biochemical; settings: for inhibition at 1 µM: 1 μM test concentration, human recombinant PDE4B1, cAMP 40 nM, read-out: Inhibition at 1 μM test concentration [%] (Percentage inhibition of PDE4B); for IC50: measured according to the cAMP HTRF hPDE4B1 assay, read-out: PDE4B IC50
T1 construct: host or cells: Sf9 cells
T1 sequence (Q07343 whole entry): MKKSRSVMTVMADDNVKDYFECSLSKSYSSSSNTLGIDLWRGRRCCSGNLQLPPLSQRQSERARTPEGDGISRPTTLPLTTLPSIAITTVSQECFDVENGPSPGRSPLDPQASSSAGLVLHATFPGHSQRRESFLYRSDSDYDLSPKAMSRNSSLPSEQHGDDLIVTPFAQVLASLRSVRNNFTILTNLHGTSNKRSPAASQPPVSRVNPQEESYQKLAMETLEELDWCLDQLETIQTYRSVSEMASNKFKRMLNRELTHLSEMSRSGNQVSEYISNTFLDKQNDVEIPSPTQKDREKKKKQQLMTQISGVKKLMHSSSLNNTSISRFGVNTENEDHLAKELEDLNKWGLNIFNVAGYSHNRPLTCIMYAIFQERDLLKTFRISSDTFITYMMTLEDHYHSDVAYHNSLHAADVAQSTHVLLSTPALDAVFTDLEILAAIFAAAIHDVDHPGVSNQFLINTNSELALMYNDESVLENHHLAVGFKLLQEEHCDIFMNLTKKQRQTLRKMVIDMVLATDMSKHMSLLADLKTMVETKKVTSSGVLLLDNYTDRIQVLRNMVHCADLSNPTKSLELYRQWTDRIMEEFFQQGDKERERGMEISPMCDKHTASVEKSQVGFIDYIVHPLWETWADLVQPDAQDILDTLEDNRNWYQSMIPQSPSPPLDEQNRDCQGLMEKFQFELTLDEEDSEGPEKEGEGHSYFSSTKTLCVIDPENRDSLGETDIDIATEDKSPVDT
Experimental: cAMP HTRF® Assay to Determine the Activity of hPDE4B1
The inhibiting effect of the compounds on the enzyme activity of human PDE4B1 was measured by the quantification of 5′-adenosine monophosphate (5′-AMP), which is formed from 3′,5′-adenosine monophosphate (cAMP). Human recombinant enzyme, expressed in Sf9 cells, and the HTRF (homogeneous time-resolved fluorescence) detection method were used in the assay.
The test compound or water (control) was mixed with the human recombinant PDE4B1 enzyme (4.8 U) in a buffer consisting of 44.4 mM tris-HCl, 5.28 mM MgCl2, 2.64 mM DTT and 0.044% Tween 20 (pH 7.8). After adding the cAMP enzyme substrate (final concentration 40 nM) the mixture was incubated for 30 minutes at room temperature. Then a fluorescence acceptor (Dye2 marked with cAMP), a fluorescence donor (anti-cAMP antibody marked with a europium cryptate) and the non-specific phosphodiesterase inhibitor IBMX (3-isobutyl-1-methylxanthine; final concentration 1 mM) were added. After 60 minutes the fluorescence transfer, which correlates with the amount of remaining cAMP, was measured with a microplate reader (Rubystar, BMG) at λex=337 nm, λem=620 nm and λem=665 nm. The enzyme activity was calculated from the quotient formed from the measured signal at 665 nm and that at 620 nm. The result was expressed as the percentage inhibition of enzyme activity of the control (without PDE4 inhibitor) (literature: N. Saldou et al., Comparison of recombinant human PDE4 isoforms: interaction with substrate and inhibitors, Cell. Signal. Vol. 10, No. 6, 427-440, 1998). The enzyme was omitted for measurement of the basal control.

In the case of `COc1ccc(-c2nc3c(c(Oc4ccc(CC(=O)O)cc4)n2)CCC3)cc1Br` [Compound 14, 2-(4-(2-(3-Bromo-4-methoxyphenyl)-6,7-dihydro-5H-cyclopenta[d]pyrimidin-4-yloxy)phenyl)acetic acid], the melting point is reported as 263 to 264 °C and the inhibition at 1 µM (human PDE4B1) is reported as 68%.

`O=C(O)Cc1ccc(Oc2nc(-c3ccc(Cl)s3)nc3c2CCC3)cc1` [Compound 7, 2-(4-(2-(5-Chlorothiophen-2-yl)-6,7-dihydro-5H-cyclopenta[d]pyrimidin-4-yloxy)phenyl)acetic acid] gave an inhibition at 1 µM (human PDE4B1) of 77% and an IC50 (human PDE4B1) of under 100 nM.

For `COc1ccc(-c2nc3c(c(Oc4ccc(CC(=O)O)cc4)n2)CCC3)cc1F` [Compound 1, 2-(4-(2-(3-Fluoro-4-methoxyphenyl)-6,7-dihydro-5H-cyclopenta[d]pyrimidin-4-yloxy)phenyl)acetic acid], the inhibition at 1 µM (human PDE4B1) was 74%.

For `COc1ccc(-c2nc3c(c(Oc4ccc(CC(=O)O)cc4)n2)CS(=O)(=O)C3)cc1F` [Compound 16, 2-[4-[[2-(3-Fluoro-4-methoxy-phenyl)-6,6-dioxo-5,7-dihydro-thieno[3,4-d]pyrimidin-4-yl]oxy]-phenyl]-acetic acid], the inhibition at 1 µM (human PDE4B1) was 89% and the IC50 (human PDE4B1) was under 100 nM.
